Experimental data published in PubChem BioAssay (NCI).
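Assay format: 96-well plates, 48-hour exposure. TGI: total growth inhibition.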

How the values were obtained:
Assay in all cases: NCI-60 cell line screen, 48 h
BT-549 breast = tested on: BT-549 breast
HOP-62 NSCLC = tested on: HOP-62 NSCLC
SNB-75 CNS = tested on: SNB-75 CNS
OVCAR-8 ovarian = tested on: OVCAR-8 ovarian
CAKI-1 renal = tested on: CAKI-1 renal
KM12 colon = tested on: KM12 colon
ACHN renal = tested on: ACHN renal
OVCAR-4 ovarian = tested on: OVCAR-4 ovarian
786-0 renal = tested on: 786-0 renal
NCI-H23 lung = tested on: NCI-H23 lung
HCC-2998 colon = tested on: HCC-2998 colon
SK-MEL-2 melanoma = tested on: SK-MEL-2 melanoma
SR leukemia = tested on: SR leukemia
HCT-15 colon = tested on: HCT-15 colon
MALME-3M melanoma = tested on: MALME-3M melanoma
M14 melanoma = tested on: M14 melanoma
HL-60(TB) leukemia = tested on: HL-60(TB) leukemia
RXF 393 renal = tested on: RXF 393 renal
A498 renal = tested on: A498 renal
HT29 colon = tested on: HT29 colon
PC-3 prostate = tested on: PC-3 prostate
A549 NSCLC = tested on: A549 NSCLC
MDA-MB-231 breast = tested on: MDA-MB-231 breast
LOX IMVI melanoma = tested on: LOX IMVI melanoma
SF-295 CNS = tested on: SF-295 CNS
MDA-N = tested on: MDA-N
NCI-H226 lung = tested on: NCI-H226 lung
SK-MEL-28 melanoma = tested on: SK-MEL-28 melanoma
SK-MEL-5 melanoma = tested on: SK-MEL-5 melanoma
COLO 205 colon = tested on: COLO 205 colon
EKVX NSCLC = tested on: EKVX NSCLC
SF-539 CNS = tested on: SF-539 CNS
CCRF-CEM leukemia = tested on: CCRF-CEM leukemia
HS 578T breast = tested on: HS 578T breast
SN12C renal = tested on: SN12C renal
OVCAR-5 ovarian = tested on: OVCAR-5 ovarian
NCI/ADR-RES ovarian = tested on: NCI/ADR-RES ovarian
NCI-H460 lung = tested on: NCI-H460 lung
OVCAR-3 ovarian = tested on: OVCAR-3 ovarian
NCI-H522 lung = tested on: NCI-H522 lung
HOP-92 NSCLC = tested on: HOP-92 NSCLC
T-47D breast = tested on: T-47D breast
K-562 leukemia = tested on: K-562 leukemia
HCT-116 colon = tested on: HCT-116 colon
DU-145 prostate = tested on: DU-145 prostate
MOLT-4 leukemia = tested on: MOLT-4 leukemia
UO-31 renal = tested on: UO-31 renal
SW-620 colon = tested on: SW-620 colon
TK-10 renal = tested on: TK-10 renal
IGROV1 ovarian = tested on: IGROV1 ovarian
SNB-19 CNS = tested on: SNB-19 CNS
MDA-MB-435 = tested on: MDA-MB-435
U251 CNS = tested on: U251 CNS
MCF7 breast = tested on: MCF7 breast
UACC-257 melanoma = tested on: UACC-257 melanoma
RPMI-8226 leukemia = tested on: RPMI-8226 leukemia
SK-OV-3 ovarian = tested on: SK-OV-3 ovarian
SF-268 CNS = tested on: SF-268 CNS
UACC-62 melanoma = tested on: UACC-62 melanoma

COc1cccc(NC(=O)CC(=O)N2N=C(C)C(N=Nc3ccc(S(=O)(=O)CCOS(=O)(=O)O)cc3)C2=O)c1 (centres undefined)
TGI (BT-549 breast): 14.5 µM
TGI (HOP-62 NSCLC): 26 µM
TGI (SNB-75 CNS): 15.5 µM
TGI (OVCAR-8 ovarian): 15.5 µM
TGI (CAKI-1 renal): 10.5 µM
TGI (KM12 colon): 36 µM
TGI (ACHN renal): 15.7 µM
TGI (OVCAR-4 ovarian): 62.5 µM
TGI (786-0 renal): 9.07 µM
TGI (NCI-H23 lung): 20.9 µM
TGI (HCC-2998 colon): 29.1 µM
TGI (SK-MEL-2 melanoma): 6.23 µM
TGI (SR leukemia): > 100 µM
TGI (HCT-15 colon): 12.1 µM
TGI (MALME-3M melanoma): 23.2 µM
TGI (M14 melanoma): 20.2 µM
TGI (HL-60(TB) leukemia): 6.85 µM
TGI (RXF 393 renal): 15.9 µM
TGI (A498 renal): 22.7 µM
TGI (HT29 colon): 13.8 µM
TGI (PC-3 prostate): 14.5 µM
TGI (A549 NSCLC): 41.1 µM
TGI (MDA-MB-231 breast): 25.6 µM
TGI (LOX IMVI melanoma): 4.25 µM
TGI (SF-295 CNS): 30.6 µM
TGI (MDA-N): 14 µM
TGI (NCI-H226 lung): 27.1 µM
TGI (SK-MEL-28 melanoma): 16.9 µM
TGI (SK-MEL-5 melanoma): 13.3 µM
TGI (COLO 205 colon): 31.5 µM
TGI (EKVX NSCLC): 31.9 µM
TGI (SF-539 CNS): 28.3 µM
TGI (CCRF-CEM leukemia): > 100 µM
TGI (HS 578T breast): 88 µM
TGI (SN12C renal): 20.1 µM
TGI (OVCAR-5 ovarian): 44.9 µM
TGI (NCI/ADR-RES ovarian): > 100 µM
TGI (NCI-H460 lung): 17.9 µM
TGI (OVCAR-3 ovarian): 17 µM
TGI (NCI-H522 lung): 2.48 µM
TGI (HOP-92 NSCLC): 13.2 µM
TGI (T-47D breast): 24.2 µM
TGI (K-562 leukemia): > 100 µM
TGI (HCT-116 colon): 13 µM
TGI (DU-145 prostate): 29.6 µM
TGI (MOLT-4 leukemia): > 100 µM
TGI (UO-31 renal): 24.5 µM
TGI (SW-620 colon): 12.7 µM
TGI (TK-10 renal): 18.9 µM
TGI (IGROV1 ovarian): 17.3 µM
TGI (SNB-19 CNS): 33.9 µM
TGI (MDA-MB-435): 10.4 µM
TGI (U251 CNS): 17.9 µM
TGI (MCF7 breast): 5.71 µM
TGI (UACC-257 melanoma): 23 µM
TGI (RPMI-8226 leukemia): 21 µM

CC1(C)CCC[C@@]2(C)C1C(=O)[C@@H]1O[C@]1(C)[C@@H]2CO (some centres undefined)
TGI (BT-549 breast): 43.6 µM
TGI (HOP-62 NSCLC): > 100 µM
TGI (SNB-75 CNS): 79 µM
TGI (OVCAR-8 ovarian): > 100 µM
TGI (SK-OV-3 ovarian): > 100 µM
TGI (KM12 colon): > 100 µM
TGI (ACHN renal): > 100 µM
TGI (OVCAR-4 ovarian): > 100 µM
TGI (786-0 renal): > 100 µM
TGI (NCI-H23 lung): 67.9 µM
TGI (HCC-2998 colon): 66.5 µM
TGI (SK-MEL-2 melanoma): 66.5 µM
TGI (SR leukemia): 24.9 µM
TGI (HCT-15 colon): > 100 µM
TGI (MALME-3M melanoma): > 100 µM
TGI (M14 melanoma): > 100 µM
TGI (HL-60(TB) leukemia): 51.8 µM
TGI (RXF 393 renal): 75.6 µM
TGI (A498 renal): > 100 µM
TGI (SF-268 CNS): > 100 µM
TGI (HT29 colon): > 100 µM
TGI (PC-3 prostate): > 100 µM
TGI (A549 NSCLC): > 100 µM
TGI (MDA-MB-231 breast): > 100 µM
TGI (LOX IMVI melanoma): > 100 µM
TGI (SF-295 CNS): > 100 µM
TGI (MDA-N): > 100 µM
TGI (NCI-H226 lung): > 100 µM
TGI (SK-MEL-28 melanoma): 80.9 µM
TGI (SK-MEL-5 melanoma): > 100 µM
TGI (COLO 205 colon): 85.1 µM
TGI (EKVX NSCLC): > 100 µM
TGI (SF-539 CNS): > 100 µM
TGI (CCRF-CEM leukemia): > 100 µM
TGI (HS 578T breast): > 100 µM
TGI (SN12C renal): > 100 µM
TGI (OVCAR-5 ovarian): > 100 µM
TGI (NCI/ADR-RES ovarian): > 100 µM
TGI (NCI-H460 lung): > 100 µM
TGI (OVCAR-3 ovarian): 50.8 µM
TGI (UACC-62 melanoma): > 100 µM
TGI (NCI-H522 lung): 93.1 µM
TGI (HOP-92 NSCLC): 88 µM
TGI (T-47D breast): > 100 µM
TGI (K-562 leukemia): > 100 µM
TGI (HCT-116 colon): > 100 µM
TGI (DU-145 prostate): > 100 µM
TGI (MOLT-4 leukemia): > 100 µM
TGI (UO-31 renal): > 100 µM
TGI (SW-620 colon): > 100 µM
TGI (TK-10 renal): > 100 µM
TGI (IGROV1 ovarian): > 100 µM
TGI (SNB-19 CNS): > 100 µM
TGI (MDA-MB-435): > 100 µM
TGI (U251 CNS): 70.8 µM
TGI (MCF7 breast): > 100 µM
TGI (UACC-257 melanoma): > 100 µM
TGI (RPMI-8226 leukemia): 53.4 µM
